# According to PubChem BioAssay AID1288 (Columbia University Molecular Screening Center, 2008):
# Active and inactive are the calls of the source. The rule behind the calls is not given here.
# Assay: inhibitors of TNFa-induced E-selectin expression, confirmation, imaging, retest plus dose response, cell count (AID 1288);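 note: 0% = stimulated vehicle wells and 100% = unstimulated vehicle wells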
# Conditions: human endothelial cells, TNFa-induced E-selectin, imaging; at 2 µM; stronger effect = higher value
row,SMILES,inhibition
1,Cc1cccc(NC(=S)Nc2ccccn2)c1C,-0.54% (inactive)
2,CC(C)C(c1nnnn1Cc1ccccc1)N1CCC(C(N)=O)CC1 (stereo not drawn),9.62% (inactive)
3,CCS(=O)(=O)c1ccc2oc(Nc3ccc(C(C)C)cc3)nc2c1,4.39% (inactive)
4,CCOC(=O)c1c(NC(=O)CSc2nnc(CNc3ccc(C)cc3C)o2)sc(C)c1C,2.5% (inactive)
5,O=C(NCc1nc(-c2ccccc2)no1)c1ccc2c(c1)OCO2,24.1% (inactive)
6,COc1ccc(CCNC(=O)CSc2nc(-c3ccco3)cc(C(F)(F)F)n2)cc1OC,18.9% (inactive)
7,CC(=O)Oc1cccc(N2C(=O)C3CC=C(Cl)CC3C2=O)c1 (stereo not drawn),31.6% (inactive)
8,CS(=O)(=O)N1CCc2cc(-c3csc(NC(=O)Cc4cccs4)n3)ccc21,11.6% (inactive)
9,CCOc1ccc(NC(=O)/C=C/c2ccc(OC)cc2)c([N+](=O)[O-])c1,13.8% (inactive)
10,Cc1nnc(SCC(=O)N(C)c2ccccc2)n1Cc1ccccc1,1.26% (inactive)
11,Cc1cc(C)cc(NC(=S)NC2CC3CCCC(C2)N3C2CC2)c1 (stereo not drawn),0.55% (inactive)
12,O=C(CCn1nnc2ccccc21)Nc1nnc(Cc2ccc(F)cc2)s1,5.36% (inactive)
13,O=C(Cn1ncc2c(=O)oc3ccccc3c21)N1CCc2ccccc2C1,9.96% (inactive)
14,CC(=O)c1ccc(NC(=O)Nc2ccc([N+](=O)[O-])cc2C)cc1,48% (inactive)
15,Cn1c(=O)c2c(nc(SCC(=O)NC34CC5CC(CC(C5)C3)C4)n2C)n(C)c1=O,16.3% (inactive)
16,O=C(Cc1cccs1)NNC(=S)NC(=O)c1ccc(F)c(F)c1,6.92% (inactive)
17,CCCC(=O)C1=C(O)C(C(=O)OC)C(C)(C)CC1=Nc1ccc(N)cc1 (stereo not drawn),10.6% (inactive)
18,Cc1cc(OCC(=O)Nc2ccncc2)c(C)cc1Br,3.41% (inactive)
19,O=C(Nc1ccc(Cl)cc1)Nc1nnc(CSc2ccc(Cl)cc2)s1,6.9% (inactive)
20,NC(=S)NNc1cccc(Cl)c1,6.61% (inactive)
21,CCc1cc(OCCOCCN(C)C)ccc1Cl,8.67% (inactive)
22,COc1ccc2c(c1)C1CC(C)(NC(=O)C1S(=O)(=O)c1ccc(F)cc1)O2 (stereo not drawn),28.9% (inactive)
23,N=c1sccn1CC(=O)NCCc1ccc(Cl)cc1,3.43% (inactive)
24,COc1cccc(-c2cnc(NCc3cc(Cl)ccc3O)n2C)c1,3.22% (inactive)
25,O=C(NCc1ccccc1)N1CCN(c2ccc(Cl)c(Cl)c2)CC1,15.4% (inactive)

row,SMILES,inhibition
1,O=C(CCCN1CCOCC1)c1ccc2c(c1)OCCO2,2.27% (inactive)
2,CCOC(=O)c1c(NC(C)=O)sc2c(O)cccc12,35.6% (inactive)
3,Cc1cc(=O)oc2cc(OCC(=O)OCC(=O)NCc3ccc4c(c3)OCO4)ccc12,22.5% (inactive)
4,Cc1ccc(-n2c(=O)c3c4c(sc3n(Cc3cc(=O)n5ccccc5n3)c2=O)CCC4)cc1C,3.95% (inactive)
5,CCCSc1nc(C)c(-c2csc(C(C#N)=C3CCCC3)n2)cc1C#N,8.04% (inactive)
6,CCOC(=O)N1CCC(NC(=O)CN2C(=O)CSc3nc(C)cc(C)c32)CC1,3.53% (inactive)
7,Cn1c(CCNC(=O)c2ccc(Cl)c(Cl)c2)nnc1SCc1ccc(Cl)c(Cl)c1,6.96% (inactive)
8,CC1CC(Nc2ccccc2)=CC(=O)O1 (stereo not drawn),-4.3% (inactive)
9,O=C1CC(Sc2nnc(-c3ccccc3O)o2)C(=O)N1c1ccccc1 (stereo not drawn),9.02% (inactive)
10,CC1=C(C(=O)N2CCC3(CC2)OCCO3)C2(CCC(C)CC2)OC1=O (stereo not drawn),6.34% (inactive)
11,Cc1c(Cl)cccc1N1C(=O)CC(N(O)c2ccccc2)C1=O (stereo not drawn),12.9% (inactive)
12,CCOC(=O)N1CCN(C(=S)NC(=O)c2cncc(Br)c2)CC1,19.8% (inactive)
13,CCCOc1ccc(NC(=O)C(=O)NCCCn2ccnc2)cc1,42.5% (inactive)
14,COc1ccc(N(CC(=O)Nc2ccc3c(c2)OCO3)S(C)(=O)=O)c(OC)c1,-1.1% (inactive)
15,Cc1ccc(Cn2ncc3c(N4CCN(C5CCCC5)CC4)ncnc32)cc1,3.96% (inactive)
16,CN1CCCN(S(=O)(=O)c2cccc(Cl)c2Cl)CC1,-0.57% (inactive)
17,CC1Cc2cc(/C(O)=C3/C(=O)C(=O)N(CCCn4ccnc4)C3c3ccncc3)ccc2O1 (stereo not drawn),5.53% (inactive)
18,Cc1cc2cc(NC(=O)c3ccco3)ccc2[nH]1,-3.69% (inactive)
19,O=C(CSc1nc2ccccc2[nH]1)N1CCN(S(=O)(=O)c2ccc(Cl)cc2)CC1,3.87% (inactive)
20,Cc1cc(NC(=O)CSc2nnc3c4c(C)c(C)sc4ncn23)no1,14.7% (inactive)
21,Cc1ccc(/C=C2\SC(N)=NC2=O)s1,1.87% (inactive)
22,COc1ccc(CCNC(=O)C(=O)NCc2ccc(C)cc2)cc1OC,8.92% (inactive)
23,O=C(COc1ccc([N+](=O)[O-])cc1Cl)NCCc1ccccc1,-2.48% (inactive)
24,CC(C)c1c(O)cc(-c2ccncc2)n(-c2ccc(Cl)cc2)c1=O,3.17% (inactive)
25,Cn1c(=O)[nH]c(=O)c2c1nc(CN1CCN(Cc3ccccc3)CC1)n2CC(N)=O,8.32% (inactive)

row,SMILES,inhibition
1,COc1ccc(NC(=O)c2c(C)oc3c2CCCC3)cc1,3.37% (inactive)
2,COc1ccc(NC(=O)N(CCCN2CCOCC2)Cc2cccnc2)c(OC)c1,3.7% (inactive)
3,Cc1cc(C)c(C#N)c(=N)o1,-5.81% (inactive)
4,COc1c(Cl)cc(Cl)cc1C(=O)Nc1ccc(NC(C)=O)cc1,5.32% (inactive)
5,Cc1ccc(S(=O)(=O)Nc2ccc(NC(=O)Nc3ccc(F)cc3F)cc2)cc1,37.3% (inactive)
6,Cc1ccccc1-n1ccnc1SCC(=O)O,23% (inactive)
7,CC12CCC3(CO)COC(c4ccccc4O1)C2C3 (stereo not drawn),13.6% (inactive)
8,CN(C)CC1CSCCC1(O)c1ccc(Cl)cc1 (stereo not drawn),20.4% (inactive)
9,CCN(CC)CCNC(=O)CS(=O)Cc1nc(-c2ccccc2Cl)oc1C (stereo not drawn),3.34% (inactive)
10,C=CCNC(=S)NNC(=O)c1ccc(OCC)cc1,1.76% (inactive)
11,CN1CCC(N(C)C(=S)NC(=O)C23CC4CC(CC(C4)C2)C3)CC1,28.5% (inactive)
12,Cc1ccc2oc(Nc3nc(-c4ccccc4)cc(=O)[nH]3)nc2c1,10.7% (inactive)
13,CCCCNc1nc(CC)c2c(c1C#N)CCCC2,4.98% (inactive)
14,Cn1c(NCCN2CCCCC2)cc(=O)n(C)c1=O,22.7% (inactive)
15,COCCN1C(=O)N(c2cccc(C)c2)C(=O)C1CC(=O)Nc1ccc(F)cc1 (stereo not drawn),12% (inactive)
16,Cc1ccc(Cc2cnc(NC(=O)/C(C#N)=C/c3ccc(-c4ccccc4[N+](=O)[O-])o3)s2)cc1,5.26% (inactive)
17,CC(C)(C)OC(=O)NNC(=O)NC12CC3CC(CC(C3)C1)C2,3.2% (inactive)
18,O=C(NC1CCCCC1)C(c1cccs1)N(C(=O)c1ccco1)c1ccc2c(c1)OCCO2 (stereo not drawn),8.94% (inactive)
19,O=C(CSc1ncnc2nc[nH]c12)Nc1ccccc1C(F)(F)F,30.5% (inactive)
20,CCOC(=O)N1CCN(C(=O)C2CCN(S(=O)(=O)c3cc(OC)ccc3OC)CC2)CC1,1.55% (inactive)
21,CCC(Sc1nc2c(c(=O)n1CC)SC(C)C2)C(=O)OC (stereo not drawn),6.81% (inactive)
22,O=C(CSc1nnc(CNc2ccc(F)cc2)o1)N1CCCc2ccccc21,2.29% (inactive)
23,COc1ccccc1Cc1nc(-c2ccncc2)no1,13.1% (inactive)
24,Cc1nc2ccc(NC(=O)c3cc(S(=O)(=O)N4CCOCC4)ccc3C)cc2s1,16% (inactive)
25,CC(C)CC1NC(=O)N(CC(=O)N2CCN(S(=O)(=O)c3ccc(Cl)cc3)CC2)C1=O (stereo not drawn),-2.35% (inactive)

row,SMILES,inhibition
1,CCOc1cc(N2CCOCC2)c(OCC)cc1NS(=O)(=O)c1ccc(Cl)s1,6.76% (inactive)
2,O=C(Cc1ccc(-c2ccccc2)cc1)NCCN1CCOCC1,2.16% (inactive)
3,COc1ccc(C2C(C(=O)Nc3cccnc3)=C(C)Nc3nc(-c4cccs4)nn32)cc1 (stereo not drawn),7.57% (inactive)
4,Cc1ccc(C2CC(=O)N(c3ccc(F)cc3)C3=C2C(=O)CCC3)cc1 (stereo not drawn),4.74% (inactive)
5,Cc1ccc(/C=c2\sc3n(c2=O)CN(c2cccc(Br)c2)CN=3)o1,3.58% (inactive)
6,COc1ccc(OCC(=O)N2CCN(Cc3c[nH]c4ccccc34)CC2)cc1,-1.94% (inactive)
7,CCc1cccc(CC)c1NC(=O)COC(=O)c1cccc(-c2ccc(OC(C)=O)cc2)c1,1.97% (inactive)
8,C=CCn1c(COc2cccc(C)c2C)nnc1SCC(=O)N1CCN(c2ccccc2)CC1,5.6% (inactive)
9,CC(=O)c1cccc(NS(=O)(=O)N2CCCCC2)c1,-4.42% (inactive)
10,C=CCn1c(COc2ccccc2)nnc1SCC(=O)O,11.9% (inactive)
11,COCCCNC(=O)COc1ccc(S(=O)(=O)NCc2ccccc2)cc1Cl,7.46% (inactive)
12,COc1ccccc1NC(=S)N(Cc1ccco1)Cc1cc2cccc(C)c2[nH]c1=O,30.6% (inactive)
13,CCOC(=O)/C(C#N)=C1/C=Cc2ccccc2N1CC,10.7% (inactive)
14,COc1ccc(S(=O)(=O)Nc2cccc(S(=O)(=O)N3CCCCCC3)c2)cc1,31% (inactive)
15,Cc1ccc(/C=C/C(=O)C2C(=O)c3ccccc3C2=O)cc1,23.7% (inactive)
16,CCC(=O)NC(c1ccc([N+](=O)[O-])cc1)c1c(O)ccc2ccccc12 (stereo not drawn),0.15% (inactive)
17,CC(C)(C)OC(=O)NCC(=O)N1CCC(C(=O)O)CC1,-3.45% (inactive)
18,C/C(=N\Nc1cc(-c2ccccc2)nc(-c2ccccc2)n1)c1ccc(O)c(C)c1,5.91% (inactive)
19,O=C(Nc1nnc(C2CC2)s1)c1cc(-c2ccccc2)nn1-c1ccccc1,6.68% (inactive)
20,Cc1cc([N+](=O)[O-])nn1CC(=O)Nc1sc2c(c1C(N)=O)CCCC2,18.3% (inactive)
21,CCOc1cc(C(=O)NCc2nnc(SCC(=O)OC)n2C)cc(OCC)c1OCC,-6.58% (inactive)
22,COc1cc(-c2nnc(COc3ccc4ccccc4c3)o2)cc(OC)c1OC,5.08% (inactive)
23,CCCC(CCC)C(=O)NNc1cc(=O)c2c(=O)n(C)c(=O)n(C)c2[nH]1,5.15% (inactive)
